Assay results published in patent US12396995B2, “Substituted 4-aminoisoindoline-1,3-dione compounds and second active agents for combined use” (Celgene Corporation, priority 2019, dated 2025).

Assays:
[1] = tested on: DB DLBCL xenograft tumors; assay: DB (DLBCL) xenograft model, Compound 1 alone and with tazemetostat; type: in vivo, female SCID mice; conditions: for tumor volume reduction: 5 D on/2 D off
Protocol: Anti-tumor activity of Compound 1 alone and in combination with tazemetostat was studied in DB (DLBCL) xenograft model. Compound 1 (3, 10 or 30 mg/kg) was administered once daily for 5 consecutive days followed by 2 days off (5 D on/2 D off) and tazemetostat (200 mg/kg) was administered twice daily (BID).
Methods: Xenograft study was conducted with female SCID mice bearing DB DLBCL xenograft tumors. Female SCID mice were inoculated subcutaneously with DB cells in the flank region above the right hind leg. Following inoculation of animals, the tumors were allowed to grow to approximately 200 mm^3 prior to randomization. On day 33 following tumor cell inoculation, the mice bearing DB tumors ranging between 150 and 250 mm^3 were pooled together and randomized into various treatment groups. Compound 1 was formulated in 0.5% Methyl Cellulose, 0.25% Tween 80 and 50 mM Citrate pH 3 in water. Tazemetostat was formulated in CMC-Tween. Compound 1 (3, 10 or 30 mg/kg) was orally administered with three cycles of once daily for 5 consecutive days followed by 2 days off starting from day 33 after tumor cell inoculation. Tazemetostat (200 mg/kg) was orally administered twice day (BID) for three weeks. In combination group the animals received Compound 1 (3, 10 or 30 mg/kg, 5 D on/2 D off) and tazemetostat (200 mg/kg, BID) simultaneously for three weeks starting from day 33 after tumor cell inoculation. Tumors were measured twice a week using calipers and tumor volumes were calculated using the formula of W^2×L/2. Statistical analysis was performed using a one-way or 2-way analysis of variance (ANOVA). Synergy calculations were performed using fractional product method.

[2] = tested on: panel of DLBCL cell lines; assay: CellTiter-Glo proliferation, Compound 1 with BET inhibitor Compound B; type: cell-based; conditions: Combinations of Compound B and Compound 1; 40 DLBCL cell lines; 5 days
Protocol: A panel of DLBCL cell lines in the following table were treated with single-agent Compound 1, single agent Compound B (a BET inhibitor), along with the combinations of Compound 1 and Compound B, at a concentration range to investigate the antiproliferative activities.
Experimental procedures: CellTiter-Glo (CTG), a luminescent dye that measures adenosine-5′-triphosphate (ATP), was used to quantify the cell proliferation across a panel of 40 unique DLBCL cell lines. Single agents and combinations were pre-spotted into 384-well plates (diluted in final dimethyl sulfoxide [DMSO] concentration of 0.1% for a maximal volume of 50 μL). […]
For each DLBCL cell line, 50 μL of cell suspension at their respective seeding densities of 0.025 to 0.2×10^6 cells per mL were added to 384-well plates containing the compounds. The effect of the single agents and combinations on the proliferation/viability of cells was assessed after 5 days of incubation. Twenty-five microliters of CTG per well was then dispensed to the cell suspension, and ATP released by viable cells was measured after a 30-minute incubation as relative luminescence units (RLU) using an EnVision plate reader (PerkinElmer, Covina, CA). […]

[3] = tested on: WSU-DLCL2 DLBCL xenograft tumors; assay: WSU-DLCL2 (DLBCL) xenograft model, Compound 1 alone and with 5-azacytidine; type: in vivo, female SCID mice
Protocol: Anti-tumor activity of Compound 1 alone and in combination with 5-azacytidine was studies in WSU-DLCL2 (DLBCL) xenograft model. Compound 1 (1 mg/kg) was administered once daily for 5 consecutive days followed by 2 days off (5 D on/2 D off) and 5-azacytidine (1 mg/kg) was administered once daily (QD). Compound 1 (1 mg/kg, 5 D on/2 D off) and 5-azacytidine (1 mg/kg, QD) inhibited WSU-DLCL2 DLBCL tumor growth.
Methods: Xenograft study was conducted with female SCID mice bearing WSU-DLCL2 DLBCL xenograft tumors. Female SCID mice were inoculated subcutaneously with WSU-DLCL2 cells in the flank region above the right hind leg. Following inoculation of animals, the tumors were allowed to grow to approximately 200 mm^3 prior to randomization. On day 14 following tumor cell inoculation, the mice bearing WSU-DLCL2 tumors ranging between 150 and 250 mm^3 were pooled together and randomized into various treatment groups. Compound 1 was formulated in 0.5% Methyl Cellulose, 0.25% Tween 80 and 50 mM Citrate pH 3 in water. 5-Azacytidine was formulated in 0.9% saline. Compound 1 (1 mg/kg) was orally administered with three cycles of once daily for 5 consecutive days followed by 2 days off starting from day 14 after tumor cell inoculation. […] Tumors were measured twice a week using calipers and tumor volumes were calculated using the formula of W^2×L/2. […]

O=C1CC[C@H](N2C(=O)c3cccc(NCc4ccc(CN5CC(N6CCOCC6)C5)cc4F)c3C2=O)C(=O)N1 [Compound 1, (S)-2-(2,6-dioxopiperidin-3-yl)-4-((2-fluoro-4-((3-morpholinoazetidin-1-yl)methyl)benzyl)amino)isoindoline-1,3-dione]
tumor volume reduction compared with vehicle control ([1]; Compound 1 3 mg/kg in combination with tazemetostat 200 mg/kg): 99.1%
tumor volume reduction compared with vehicle control ([1]; Compound 1 10 mg/kg in combination with tazemetostat 200 mg/kg): 100%
tumor volume reduction compared with vehicle control ([1]; Compound 1 30 mg/kg in combination with tazemetostat 200 mg/kg): 100%
combination antitumor activity (fractional product method) ([1]; Compound 1 at 3, 10 or 30 mg/kg and tazemetostat at 200 mg/kg): synergistic
tumor volume reduction ([1]; single agent Compound 1 3 mg/kg oral): 16.9%
tumor volume reduction ([1]; single agent Compound 1 10 mg/kg oral): 41.11%
tumor volume reduction ([1]; single agent Compound 1 30 mg/kg oral): 48.9%
animals tumor free ([1]; tazemetostat in combination with 3 mg/kg Compound 1): 90%
animals tumor free ([1]; tazemetostat in combination with 10 mg/kg Compound 1): 100%
animals tumor free ([1]; tazemetostat in combination with 30 mg/kg Compound 1): 100%
combination effect on proliferation (Bliss independence and HSA models) [2]: synergy and additivity in the majority of DLBCL cell lines
combination antitumor activity (fractional product method) ([3]; Compound 1 1 mg/kg and 5-azacytidine 1 mg/kg): synergistic
tumor volume reduction compared to vehicle control ([3]; Compound 1 1 mg/kg in combination with 5-azacytidine 1 mg/kg): 74%
